In one test the target is T1, human H1 (Homo sapiens, UniProt P35367).
T1 construct: host or cells: CHO-K1
The experiment in a line: In vitro histamine receptor cell-based assay (aequorin bioluminescence), H1 antagonism. To be noted: CHO-K1 cells expressing human H1 and aequorin; histamine at EC80; read-out: H1 Antagonist EC50. The method, boiled down:
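Antagonism read as drop in aequorin luminescence after histamine challenge at a predetermined EC80, following 15 min compound pretreatment at room temperature. Cells: CHO-K1 carrying human H1, or H4 with Gα16; signal as AUC or amplitude, normalised to 10 μM diphenhydramine (H1) or JNJ7777120 (H4).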

The subject of test [1] is Hartley VAF outbred guinea pigs. The experiment in a line: Allergic conjunctivitis in passively sensitized guinea pigs (conjunctival EPO activity). Format: in vivo. Set-up: key: +: a ≦0.1% qd dose was statistically equivalent to dexamethasone with respect to reduction of EPO activity; −: the compound was statistically inferior to dexamethasone and not different than vehicle. To be noted: ≦0.1% qd topical, 1 hour prior to ovalbumin challenge; reduction of conjunctival EPO activity vs dexamethasone. The method, then:
(§1) Male Hartley VAF outbred guinea pigs were passively sensitized to ovalbumin by a single OD subconjunctival injection of undiluted guinea pig anti-ovalbumin antiserum 24 hours before OD topical challenge with 500 μg ovalbumin in saline. Control animals were injected with saline only and challenged with ovalbumin. To determine acute phase drug efficacy, 30 min after challenge animals were clinically scored by a masked observer for severity of signs of conjunctivitis based on a standard scale. Test compounds were administered topically 1 hour prior to challenge (QD protocol), or 1 hour prior to challenge and again 8 hours after challenge (BID protocol). Twenty-four hours after challenge, animals were euthanized and conjunctivae were harvested for determination of tissue eosinophil peroxidase (EPO) concentration as a marker of allergic inflammation. Homogenates of freshly collected tissues were prepared by shaking the tissues in 2 mL round-bottom tubes containing 0.5 mL of homogenization buffer (50 mM Tris HCl, pH 8.0, 6 mM KBr) and one 5-mm stainless steel bead on a Qiagen TissueLyser at 30 Hz for 5 min. Homogenates were frozen and thawed once, then centrifuged at 10,000 rpm for 5 min. EPO activity in supernatants was measured by reacting diluted homogenates with a solution of 6 mM o-phenylenediamine substrate and 8.8 mM H2O2 in homogenization buffer for 3 min. The reaction was stopped with 4M H2SO4 and absorbances were measured at […] on a spectrophotometric plate reader. Total EPO in samples was calculated from a standard curve of recombinant human EPO in each assay. EPO activity was normalized to total protein concentration (Pierce BCA assay) in supernatants. Background EPO activity was determined from the unsensitized, antigen-challenged control group. Percent inhibition was calculated from the sensitized, antigen-challenged, vehicle-treated control group in each experiment. Ovalbumin-injected animals dosed topically with 0.1% w/v dexamethasone (dex) served as positive control. Groups were compared by ANOVA with Dunnett's or Tukey's post-hoc tests where appropriate with significance assigned at the 95% confidence level.
(§2) The table below summarizes the results.

The next test concerns the target T2, human H4 (Homo sapiens, UniProt Q9H3N8).
T2 construct: host or cells: CHO-K1
The experiment in a line: In vitro histamine receptor cell-based assay (aequorin bioluminescence), H4 antagonism. To be noted: CHO-K1 cells expressing human H4, aequorin and Gα16; histamine at EC80; read-out: H4 Antagonist EC50. The method in brief: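 Antagonism read as loss of aequorin luminescence after histamine (EC80 final) addition, following 15 min room-temperature compound pretreatment of coelenterazine-h-loaded (5 μM) CHO-K1 cells co-expressing human H4 and Gα16. Efficacy given relative to 10 μM JNJ7777120; agonism excluded in separate no-histamine runs.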

The subject of test [2] is Hartley VAF outbred guinea pigs. The experiment in a line: Allergic conjunctivitis in passively sensitized guinea pigs (conjunctival EPO activity). Format: in vivo. To be noted: reduction of conjunctival EPO activity vs dexamethasone; for BID activity: 0.01% bid topical, 1 hour prior to and 8 hours after ovalbumin challenge; for QD activity: ≦0.1% qd topical, 1 hour prior to ovalbumin challenge. Set-up: key: +: a 0.01% bid dose was statistically equivalent to dexamethasone with respect to reduction of EPO activity; −: the compound was statistically inferior to dexamethasone and not different than vehicle. The method, then:
as §1, §2

SMILES strings stand for the structures.

T1 sequence (P35367 whole entry): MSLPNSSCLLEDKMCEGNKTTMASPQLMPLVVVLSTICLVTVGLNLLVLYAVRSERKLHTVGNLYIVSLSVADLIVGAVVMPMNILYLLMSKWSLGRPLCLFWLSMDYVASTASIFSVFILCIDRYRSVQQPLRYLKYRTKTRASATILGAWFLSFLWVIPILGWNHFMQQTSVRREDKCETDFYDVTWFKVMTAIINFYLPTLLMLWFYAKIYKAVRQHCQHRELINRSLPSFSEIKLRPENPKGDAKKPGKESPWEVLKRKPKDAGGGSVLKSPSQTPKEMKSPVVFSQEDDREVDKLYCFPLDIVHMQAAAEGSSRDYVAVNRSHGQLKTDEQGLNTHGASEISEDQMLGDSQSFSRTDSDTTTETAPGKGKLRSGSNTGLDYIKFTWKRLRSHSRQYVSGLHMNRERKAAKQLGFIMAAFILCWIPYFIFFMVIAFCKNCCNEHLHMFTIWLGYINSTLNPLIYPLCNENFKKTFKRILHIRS
T2 sequence (Q9H3N8 whole entry): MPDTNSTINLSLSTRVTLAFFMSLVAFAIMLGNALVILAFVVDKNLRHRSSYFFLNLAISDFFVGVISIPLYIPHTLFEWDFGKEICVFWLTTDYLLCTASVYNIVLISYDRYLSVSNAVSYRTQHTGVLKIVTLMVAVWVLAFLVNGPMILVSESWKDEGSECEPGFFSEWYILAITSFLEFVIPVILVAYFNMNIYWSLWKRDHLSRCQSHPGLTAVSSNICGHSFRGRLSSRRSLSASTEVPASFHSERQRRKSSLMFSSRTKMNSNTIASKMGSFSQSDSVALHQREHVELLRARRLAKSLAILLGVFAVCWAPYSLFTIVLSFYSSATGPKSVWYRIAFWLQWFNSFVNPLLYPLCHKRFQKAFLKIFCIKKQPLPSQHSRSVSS

For `Cc1nc2c3cc(C(F)(F)F)cc(F)c3nc(N3CCN(C)CC3)n2n1.Cl` [Example 127, 7-fluoro-2-methyl-5-(4-methylpiperazin-1-yl)-9-(trifluoromethyl)-[1,2,4]triazolo[1,5-c]quinazoline hydrochloride], the values for the concentration for a half-maximal effect (EC50) on human H1 and on human H4 were greater than 10 µM and less than 10 µM, respectively. In addition, the QD activity entry in test [1] is “+”.
Turning to `CN1CCN(c2nc3ccc(Cl)cc3c3conc23)CC1` [Example 166, 8-Chloro-4-(4-methylpiperazin-1-yl)isoxazolo[3,4-c]quinoline], the EC50 at human H1 was greater than 10 µM; on human H4, less than 10 µM. In addition, the BID activity result in test [2] is on record as “+”. Besides, the QD activity entry in test [1] is “+”.
For `FC(F)(F)c1ccc2nc(N3CCNCC3)c3nncn3c2c1` [Example 24, 4-(piperazin-1-yl)-8-(trifluoromethyl)-[1,2,4]triazolo[4,3-a]quinoxaline], the figures for the EC50 on human H1 and at human H4 were greater than 10 µM and less than 10 µM, respectively. Moreover, in test [1], the QD activity result is reported as “+”.
Consider `Cl.FC(F)(F)c1ccc2nc(N3CCNCC3)c3nnnn3c2c1` [Example 29, 4-(piperazin-1-yl)-8-(trifluoromethyl)tetrazolo[1,5-a]quinoxaline hydrochloride], for which the EC50 is greater than 10 µM on human H1 and less than 10 µM on human H4. In addition, in test [2], the BID activity result is “+”. The QD activity result in test [1] is given as “+”.
As for `Cc1nc2c(N3CCN(C)CC3)nc3ccc(Cl)cc3n2n1` [Example 165, 8-chloro-2-methyl-4-(4-methylpiperazin-1-yl)-[1,2,4]triazolo[1,5-a]quinoxaline], the EC50 at human H1 and on human H4 was less than 10 µM throughout. Further, in test [2], the BID activity result is on record as “+”. In addition, the QD activity result in test [1] is listed as “+”.
Consider `Clc1ccc2nc(N3CCNCC3)c3nnnn3c2c1` [Example 19, 8-Chloro-4-(piperazin-1-yl)tetrazolo[1,5-a]quinoxaline], for which the values for the EC50 at human H1 and at human H4 were greater than 10 µM and less than 10 µM, respectively. Moreover, the BID activity entry in test [2] is listed as “+”. Further, the QD activity entry in test [1] is “+”.
Regarding `Cc1nc2c3c(F)c(C(F)(F)F)ccc3nc(N3CCN(C)CC3)n2n1.Cl` [Example 126, 10-fluoro-2-methyl-5-(4-methylpiperazin-1-yl)-9-(trifluoromethyl)-[1,2,4]triazolo[1,5-c]quinazoline hydrochloride], the EC50 at human H1 is greater than 10 µM; on human H4, less than 10 µM. Also, in test [1], the QD activity entry is “+”.
As for `FC(F)(F)c1cc2c(cc1Cl)nc(N1CCNCC1)c1nncn12` [Example 45, 7-Chloro-4-(piperazin-1-yl)-8-(trifluoromethyl)-[1,2,4]triazolo[4,3-a]quinoxaline], the values for the EC50 at human H1 and on human H4 were greater than 10 µM and less than 10 µM, respectively. The QD activity entry in test [1] was “+”.
`Cc1nc2c3cc(C(F)(F)F)c(F)cc3nc(N3CCN(C)CC3)n2n1.Cl` [Example 124, 8-fluoro-2-methyl-5-(4-methylpiperazin-1-yl)-9-(trifluoromethyl)-[1,2,4]triazolo[1,5-c]quinazoline hydrochloride]: the figures for the EC50 at human H1 and at human H4 were greater than 10 µM and less than 10 µM, respectively. In addition, the QD activity entry in test [2] is on record as “−”.
For the molecule `Cc1ccc2nc(N3CCN(C)CC3)c3nncn3c2c1` [Example 21, 8-Methyl-4-(4-methylpiperazin-1-yl)-[1,2,4]triazolo[4,3-a]quinoxaline], the figures for the EC50 on human H1 and on human H4 were greater than 10 µM and less than 10 µM, respectively. Besides, the BID activity result in test [2] is given as “−”.
Regarding `CN1CCN(c2nc3ccc(Cl)cc3c3cn(C)nc23)CC1` [Example 150, 8-Chloro-2-methyl-4-(4-methylpiperazin-1-yl)-2H-pyrazolo[3,4-c]quinoline], the figures for the EC50 at human H1 and on human H4 were greater than 10 µM and less than 10 µM, respectively. Also, the BID activity entry in test [2] is “−”.
For the molecule `CN1CCN(c2nc3cc(F)c(Cl)cc3n3cnnc23)CC1` [Example 31, 8-chloro-7-fluoro-4-(4-methylpiperazin-1-yl)-[1,2,4]triazolo[4,3-a]quinoxaline], the EC50 was greater than 10 µM on human H1 and less than 10 µM on human H4. Also, the QD activity entry in test [2] is “−”.
`Clc1ccc2nc(N3CCCNCC3)c3nncn3c2c1` [Example 66, 8-chloro-4-(1,4-diazepan-1-yl)-[1,2,4]triazolo[4,3-a]quinoxaline]: the EC50 at human H1 is greater than 10 µM; at human H4, less than 10 µM. In addition, the QD activity result in test [2] is listed as “−”.
Taken in the same sequence, the figures for `CN1CCN(c2nc3ccc(Br)cc3n3cnnc23)CC1` [Example 54, 8-bromo-4-(4-methylpiperazin-1-yl)-[1,2,4]triazolo[4,3-a]quinoxaline] were greater than 10 µM, less than 10 µM and “−”.
As to `Fc1cc2nc(N3CCNCC3)c3nncn3c2cc1C(F)(F)F` [Example 41, 7-Fluoro-4-(piperazin-1-yl)-8-(trifluoromethyl)-[1,2,4]triazolo[4,3-a]quinoxaline], the EC50 is greater than 10 µM at human H1 and less than 10 µM on human H4. Moreover, the QD activity result in test [2] is “−”.
In the case of `Cc1nc2c3cc(F)c(C(F)(F)F)cc3nc(N3CCN(C)CC3)n2n1.Cl` [Example 129, 9-fluoro-2-methyl-5-(4-methylpiperazin-1-yl)-8-(trifluoromethyl)-[1,2,4]triazolo[1,5-c]quinazoline hydrochloride], the EC50 is greater than 10 µM on human H1 and less than 10 µM on human H4. Moreover, the QD activity entry in test [2] is reported as “−”.
With `CN1CCN(c2nc3ccc(Cl)cc3n3ccnc23)CC1` [Example 7, 8-Chloro-4-(4-methylpiperazin-1-yl)imidazo[1,2-a]quinoxaline], the EC50 was greater than 10 µM at human H1 and less than 10 µM on human H4. The BID activity entry in test [2] is listed as “−”.
For `Clc1ccc2nc(N3CCNCC3)c3nc[nH]c3c2c1` [Example 161, 8-Chloro-4-(piperazin-1-yl)-1H-imidazo[4,5-c]quinoline], the 50% effective concentration (EC50) on human H1 and on human H4 was less than 10 µM throughout. Further, the BID activity entry in test [2] was “+”.
